# Measured values from patent US11034692B1 (Genentech, Inc., priority 2017, dated 2021).
# Target: HPK1
# Assay: HPK1 Lantha Binding Assay ("Lanth")
# Settings: Table B1-1, read-out: HPK1 Ki (μM) (Lanth)
# Protocol: HPK1 Lantha Binding Assay (“Lanth”)
# The compounds to be tested were diluted by preparing 12.5 uL/well of 5 mM compound (100×) in columns 2 and 13 and 10 ul/well of DMSO in columns 3-12, 14-23, and wells A1-H1 and I24-P24 of the compound plate using a Bravo liquid handling platform. For the reference compound, the top concentration was 1 mM. To the plate was added 10 ul 2 mM staurosporine in wells J1-P1 and A24-H24. A 11 point 5-fold compound serial dilution was performed using the Bravo liquid handling platform. From the plate were transferred 2.5 ul of the solutions from column 2 and column 13 to the 10 ul of DMSO in columns 3 and 14 & so on. The compound plate was centrifuged at 2500 rpm for 1 min. From the compound plate was transferred 80 nl of the compounds into an assay plate using the Echo liquid handler system. One compound plate makes two assay plates. Each assay plate is sealed and stored in an N2 cabinet.
# The following assay concentrations and times were used: 2 nM HPK1, 2 nM Eu-Anti-GST Ab, and 15 nM Tracer222, with 60 min incubation time.
# III. HPK Lantha Binding Assay:
# For the binding assay, 4 ul 2×HPK1 and Eu-anti-GST antibody were added to each well of the assay plate using a Multidrop reagent dispenser. The solutions were incubated in a 23 C incubator for 1 h. To each well of the assay plate was added 4 ul 2× Tracer-222 using a Multidrop reagent dispenser. The solutions were again incubated in a 23 C incubator for 1 h. The results of the assay were read using an Envision plate reader with the following parameters: TR_FRET, 340ex/615 and 665em; 100 usec Delay; and 200 usec integration.
# Compound Ki was analyzed using Morrison ki fit model in XL-fit • a. fit=(1−((((E+x)+(Ki*(1+(S/Kd))))−(((((E+x)+(Ki*(1+(S/Kd))))[…])−((4*E)*x))^0.5))/(2*E))) • res=(y-fit) • b. Parameters: • E=enzyme concentration • S=Tracer222 concentration, Kd=Tracer222 Kd • All measurements reported using the same units (uM)
# Exemplary compounds of Formula I or Ia were tested in the binding assays. The Ki data in Table B1-1 are based on the “Lanth” assay.
row,SMILES,Ki [nM]
1,"Cc1ccncc1-c1cc2cc(Nc3ccn(C)c(=O)c3)ncc2c(N)n1 [Compound 170, 4-[[8-amino-6-(4-methyl-3-pyridyl)-2,7-naphthyridin-3-yl]amino]-1-methyl-pyridin-2-one]",3
2,"Cc1ccncc1-c1cc2cc(NC(=O)Nc3ccccc3C#N)ncc2c(N)n1 [Compound 171, 1-[8-amino-6-(4-methyl-3-pyridyl)-2,7-naphthyridin-3-yl]-3-(2-cyanophenyl)urea]",1500
3,"COCCN1CC(NC(=O)Nc2cc3cc(-c4cnccc4C)nc(N)c3cn2)C1 [Compound 174, 1-(8-amino-6-(4-methylpyridin-3-yl)-2,7-naphthyridin-3-yl)-3-(1-(2-methoxyethyl)azetidin-3-yl)urea]",2.5
4,"Cc1ccncc1-c1cc2cc(NC(=O)NC3CNC3)ncc2c(N)n1 [Compound 175, 1-(8-amino-6-(4-methylpyridin-3-yl)-2,7-naphthyridin-3-yl)-3-(azetidin-3-yl)urea]",3.4
5,"CCc1ccncc1-c1cc2cc(NC(=O)N[C@@H]3CCN(C)C3=O)ncc2c(N)n1 [Compound 176, (R)-1-(8-amino-6-(4-ethylpyridin-3-yl)-2,7-naphthyridin-3-yl)-3-(1-methyl-2-oxopyrrolidin-3-yl)urea]",5.5
6,"CNC(=O)C(C)(C)n1cc(Nc2cc3cc(-c4cnccc4C)nc(N)c3cn2)cn1 [Compound 182, 2-[4-[[8-amino-6-(4-methyl-3-pyridyl)-2,7-naphthyridin-3-yl]amino]pyrazol-1-yl]-N,2-dimethyl-propanamide]",1.2
7,"C[C@H]1COC(=O)N1c1cc2cc(NC(=O)[C@@H]3C[C@H]3C#N)ncc2c(N)n1 [Compound 186, trans-N-(8-amino-6-((S)-4-methyl-2-oxooxazolidin-3-yl)-2,7-naphthyridin-3-yl)-2-cyanocyclopropanecarboxamide]",4
8,"Cc1ccncc1-c1nc(N)c2cnc(NC(=O)[C@@H]3C[C@H]3c3cn[nH]c3)cc2c1F [Compound 196, (1R,2R)—N-(8-amino-5-fluoro-6-(4-methylpyridin-3-yl)-2,7-naphthyridin-3-yl)-2-(1H-pyrazol-4-yl)cyclopropane-1-carboxamide]",6.01
9,"Cc1c(N)cncc1-c1cc2cc(NC(=O)[C@@H]3C[C@H]3C#N)ncc2c(N)n1 [Compound 199, (1R,2R)—N-(8-amino-6-(5-amino-4-methylpyridin-3-yl)-2,7-naphthyridin-3-yl)-2-cyanocyclopropane-1-carboxamide]",3.39
10,"Cc1ccncc1-c1cc2cc(NC(=O)C3CC3(C)CO)ncc2c(N)n1 (centres unmarked) [Compound 209, N-(8-amino-6-(4-methylpyridin-3-yl)-2,7-naphthyridin-3-yl)-2-(hydroxymethyl)-2-methylcyclopropanecarboxamide]",30.7
11,"Cn1cc([C@H]2C[C@@H]2C(=O)Nc2cc3cc(-c4cnccc4CCO)nc(N)c3cn2)cn1 [Compound 215, (1S,2S)—N-(8-amino-6-(4-(2-hydroxyethyl)pyridin-3-yl)-2,7-naphthyridin-3-yl)-2-(1-methyl-1H-pyrazol-4-yl)cyclopropanecarboxamide]",1.19
12,"N#C[C@H]1C[C@@H]1C(=O)Nc1cc2cc(-c3cnccc3-c3cn[nH]c3)nc(N)c2cn1 [Compound 236, (1S,2S)—N-(6-(4-(1H-pyrazol-4-yl)pyridin-3-yl)-8-amino-2,7-naphthyridin-3-yl)-2-cyanocyclopropanecarboxamide]",23.3
13,"Cc1cc(-c2cnn(C)c2)ncc1-c1cc2cc(NC(=O)[C@@H]3C[C@H]3CC#N)ncc2c(N)n1 [Compound 237, (1R,2S)—N-(8-amino-6-(4-methyl-6-(1-methyl-1H-pyrazol-4-yl)pyridin-3-yl)-2,7-naphthyridin-3-yl)-2-(cyanomethyl)cyclopropanecarboxamide]",10.2
14,"Cc1cc(-c2cnn(C)c2)ncc1-c1cc2cc(NC(=O)[C@H]3C[C@@H]3CC#N)ncc2c(N)n1 [Compound 238, (1S,2R)—N-(8-amino-6-(4-methyl-6-(i-methyl-H-pyrazol-4-yl)pyridin-3-yl)-2,7-naphthyridin-3-yl)-2-(cyanomethyl)cyclopropanecarboxamide]",1.94

# Stronger by Ki, values ahead:
row,Ki [nM],SMILES
1,0.98,"Cc1ccncc1-c1cc2cc(Nc3cnn(C(C)(C)C(=O)N(C)C)c3)ncc2c(N)n1 [Compound 183, 2-[4-[[8-amino-6-(4-methyl-3-pyridyl)-2,7-naphthyridin-3-yl]amino]pyrazol-1-yl]-N,N,2-trimethyl-propanamide]"
2,0.967,"Cc1ccncc1-c1cc2cc(NC(=O)[C@@H]3C[C@H]3CC#N)ncc2c(N)n1 [Compound 194, (1R,2S)—N-(8-amino-6-(4-methylpyridin-3-yl)-2,7-naphthyridin-3-yl)-2-(cyanomethyl)cyclopropane-1-carboxamide]"
3,0.706,"N#C[C@@H]1C[C@H]1C(=O)Nc1cc2cc(-c3cnccc3-c3cn[nH]c3)nc(N)c2cn1 [Compound 235, (1R,2R)—N-(6-(4-(1H-pyrazol-4-yl)pyridin-3-yl)-8-amino-2,7-naphthyridin-3-yl)-2-cyanocyclopropanecarboxamide]"
4,0.694,"Cc1ccncc1-c1nc(N)c2cnc(NC(=O)[C@H]3C[C@@H]3c3cnn(C)c3)cc2c1Cl [Compound 233, (1S,2S)—N-(8-amino-5-chloro-6-(4-methylpyridin-3-yl)-2,7-naphthyridin-3-yl)-2-(1-methyl-1H-pyrazol-4-yl)cyclopropanecarboxamide]"
5,0.55,"Cc1ccncc1-c1cc2cc(NC(=O)[C@@H]3C[C@H]3c3cnn(C)c3)ncc2c(N)n1 [Compound 198, (1R,2R)—N-(8-amino-6-(4-methylpyridin-3-yl)-2,7-naphthyridin-3-yl)-2-(1-methyl-H-pyrazol-4-yl)cyclopropane-1-carboxamide]"
6,0.48,"Cc1ccncc1-c1cc2cc(Nc3cnn(CCO)c3)ncc2c(N)n1 [Compound 169, 2-[4-[[8-amino-6-(4-methyl-3-pyridyl)-2,7-naphthyridin-3-yl]amino]pyrazol-1-yl]ethanol]"
7,0.4,"Cc1ccncc1-c1cc2cc(NC(=O)[C@H]3C[C@@H]3C#N)ncc2c(N)n1 [Compound 202, (1S,2S)—N-(8-amino-6-(4-methylpyridin-3-yl)-2,7-naphthyridin-3-yl)-2-cyanocyclopropane-1-carboxamide]"
8,0.4,"Cc1ccncc1-c1cc2cc(NC(=O)[C@@H]3C[C@H]3C#N)ncc2c(N)n1 [Compound 203, (1R,2R)—N-(8-amino-6-(4-methylpyridin-3-yl)-2,7-naphthyridin-3-yl)-2-cyanocyclopropane-1-carboxamide]"
9,0.343,"Cc1c(N)cncc1-c1cc2cc(NC(=O)[C@H]3C[C@@H]3C#N)ncc2c(N)n1 [Compound 200, (1S,2S)—N-(8-amino-6-(5-amino-4-methylpyridin-3-yl)-2,7-naphthyridin-3-yl)-2-cyanocyclopropane-1-carboxamide]"
10,0.173,"Cc1ccncc1-c1cc2cc(NC(=O)[C@H]3C[C@@H]3C3CNC(=O)O3)ncc2c(N)n1 (stereo partly drawn) [Compound 231, trans-N-(8-amino-6-(4-methylpyridin-3-yl)-2,7-naphthyridin-3-yl)-2-((S)-2-oxooxazolidin-5-yl)cyclopropanecarboxamide]"
11,0.135,"Cc1ccncc1-c1cc2cc(NC(=O)[C@H]3C[C@@H]3CC#N)ncc2c(N)n1 [Compound 193, (1S,2R)—N-(8-amino-6-(4-methylpyridin-3-yl)-2,7-naphthyridin-3-yl)-2-(cyanomethyl)cyclopropane-1-carboxamide]"
12,0.078,"Cc1ccncc1-c1nc(N)c2cnc(NC(=O)[C@@H]3C[C@H]3c3cnn(C)c3)cc2c1Cl [Compound 234, (1R,2R)—N-(8-amino-5-chloro-6-(4-methylpyridin-3-yl)-2,7-naphthyridin-3-yl)-2-(1-methyl-1H-pyrazol-4-yl)cyclopropanecarboxamide]"
13,0.039,"Cn1cc([C@@H]2C[C@H]2C(=O)Nc2cc3cc(-c4cnccc4CCO)nc(N)c3cn2)cn1 [Compound 214, (1R,2R)—N-(8-amino-6-(4-(2-hydroxyethyl)pyridin-3-yl)-2,7-naphthyridin-3-yl)-2-(1-methyl-1H-pyrazol-4-yl)cyclopropanecarboxamide]"
14,0.027,"Cc1ccncc1-c1cc2cc(NC(=O)[C@H]3C[C@@H]3c3cnn(C)c3)ncc2c(N)n1 [Compound 197, (1S,2S)—N-(8-amino-6-(4-methylpyridin-3-yl)-2,7-naphthyridin-3-yl)-2-(1-methyl-1H-pyrazol-4-yl)cyclopropane-1-carboxamide]"
15,0.02,"Cc1ccncc1-c1nc(N)c2cnc(NC(=O)[C@H]3C[C@@H]3c3cn[nH]c3)cc2c1F [Compound 195, (1S,2S)—N-(8-amino-5-fluoro-6-(4-methylpyridin-3-yl)-2,7-naphthyridin-3-yl)-2-(1H-pyrazol-4-yl)cyclopropane-1-carboxamide]"
